In US8404825B2, “Method for producing monoterpene and monoterpinoid compounds and use thereof” (Board of Regents of the Nevada System of Higher Education, …, priority 2008, dated 2013):

Columns and labels:
[1] = test system: western populations of Ips pini; details: cited from earlier work
recombinant Ipi12D04 = experiment: Functional assay of recombinant Ipi12D04 (pyridine nucleotide assay at 340 nm, GC-MS of products); assay type: biochemical, Ips pini; details: for reaction product of reduction by Ipi12D04 enzyme (stereoisomer by chiral GC): in the presence of NADPH, chiral column, compared with racemic standard
Description: Enzyme activity is determined by a pyridine nucleotide (PN) binding assay that monitors production or consumption of NADH/NADPH by measuring the absorbance of the catalysts reaction at 340 nm using a spectrophotometer. The reactions include reaction buffer (0.1 M NaP pH 7.8 and 1.1 mM EDTA), enzyme, PN, and substrate (monoterpene) in a 1 ml total volume and the absorbance was measured over time at room temperature. The volatiles produced from the reactions were extracted three times with pentane:ether (1:1) spiked with 200 n g/ml n-octanol (internal standard) and concentrated to approximately 100 ul with nitrogen gas. The samples were directly analyzed by coupled GC-MS at the Nevada Proteomics Center at UNR.
Enzyme activity was determined by a pyridine nucleotide (PN) binding assay that monitored production or consumption of NADH/NADPH spectrophotometrically. The reaction mixture included reaction buffer (0.1 M NaP pH 7.8 and 1.1 mM EDTA), enzyme, PN, and substrate (monoterpene) in a 1 ml total volume. The absorbance was measured over time at room temperature. The reactions were extracted three times with pentane:ether (1:1) spiked with 200 ng/ml n-octanol (internal standard) to extract monoterpenoids and concentrated to approximately 100 ul with nitrogen gas. The samples were directly analyzed by coupled GC-MS at the Nevada Proteomics Center at UNR.
Biochemical reactions catalyzed by recombinant Ipi12D04, as determined by functional assays, are summarized below. In general, the enzyme functions as an oxidoreductase, using NAD(P) or NAD(P)H as cofactors, depending on whether it is oxidizing or reducing a substrate. […] Negative controls for all reactions included media from un-infected cells.

I. calligraphus = details: southeast U.S.; cited from earlier work
Ips. typographus = details: cited from earlier work

C=CC(=C)CC(O)C=C(C)C (racemic) [racemic ipsdienol, ipsdienol]
attractiveness as aggregation pheromone [1]: not attractive at all | reaction product of oxidation by Ipi12D04 enzyme (recombinant Ipi12D04; with NADP, GC and mass spectrum compared with ipsdienone standard): converts racemic ipsdienol to ipsdienone

C=CC(=C)CC(O)C=C(C)C (single isomer, unassigned; (+)) [(+)-ipsdienol]
behavioural response (attraction / dispersal) (I. calligraphus): dispersed

C=CC(=C)CC(O)C=C(C)C (single isomer, unassigned; (-)) [(−)-ipsdienol, 2-methyl-6-methylene-2,7-octadien-4-ol]
behavioural response (attraction / dispersal) (I. calligraphus): attracted

C=CC(=C)C[C@@H](O)CC(C)C [(+)-ipsenol]
expected conversion by Ipi12D04 enzyme (recombinant Ipi12D04; enzyme incubated with both NAD(P) and NAD(P)H): readily converted to (−)-ipsenol

C=CC(=C)CC(=O)C=C(C)C [ipsdienone]
reaction product of reduction by Ipi12D04 enzyme (stereoisomer by chiral GC) (recombinant Ipi12D04): reaction product was pure (−)-ipsdienol

C=CC(=C)C[C@@H](O)CC(C)C [ipsenol]
behavioural response (Ips. typographus): anti-aggregation pheromone

C=CC(=C)CC(=O)CC(C)C [ipsenone]
reaction product of reduction by Ipi12D04 enzyme (stereoisomer by chiral GC) (recombinant Ipi12D04): reaction product was pure (−)-ipsdienol
